Assay results taken from PubChem BioAssay AID2060615 (Molecular Pharmacology Branch, DTP, NCI, 2025).
pIC50: −log10 of the molar value. Blank lines part the entries; values can stand above or below the compound they belong to.

System: 496974-208-R-J2-PDC complex spheroids, growth % test/control
Experiment: Anticancer human tumor 496974-208-R-J2-PDC patient-derived pancreatic carcinoma cell line growth inhibition [CLK]
Conditions: for pIC50: curve of first compound; for viability, T/C: stronger effect = lower value
Outline: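 Multi-cell-type spheroids combined patient-derived tumor cells with HUVEC endothelial cells and human mesenchymal stem cells. Paired agents were dosed in half-log steps down from about clinical Cmax, or from 10 microM where Cmax was unknown.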

[1] = second compound 0.0316 µM, first compound 0.0316 µM
[2] = second compound 0.0316 µM, first compound 0.1 µM
[3] = second compound 0.0316 µM, first compound 0.316 µM
[4] = second compound 0.0316 µM, first compound 1 µM
[5] = second compound 0.0316 µM, first compound 3.16 µM
[6] = second compound 0.0316 µM, first compound 10 µM
[7] = second compound 0.1 µM, first compound 0.0316 µM
[8] = second compound 0.1 µM, first compound 0.1 µM
[9] = second compound 0.1 µM, first compound 0.316 µM
[10] = second compound 0.1 µM, first compound 1 µM
[11] = second compound 0.1 µM, first compound 3.16 µM
[12] = second compound 0.1 µM, first compound 10 µM
[13] = second compound 0.316 µM, first compound 0.0316 µM
[14] = second compound 0.316 µM, first compound 0.1 µM
[15] = second compound 0.316 µM, first compound 0.316 µM
[16] = second compound 0.316 µM, first compound 1 µM
[17] = second compound 0.316 µM, first compound 3.16 µM
[18] = second compound 0.316 µM, first compound 10 µM
[19] = second compound 1 µM, first compound 0.0316 µM
[20] = second compound 1 µM, first compound 0.1 µM
[21] = second compound 1 µM, first compound 0.316 µM
[22] = second compound 1 µM, first compound 1 µM
[23] = second compound 1 µM, first compound 3.16 µM
[24] = second compound 1 µM, first compound 10 µM
[25] = second compound 3.16 µM, first compound 0.0316 µM
[26] = second compound 3.16 µM, first compound 0.1 µM
[27] = second compound 3.16 µM, first compound 0.316 µM
[28] = second compound 3.16 µM, first compound 1 µM
[29] = second compound 3.16 µM, first compound 3.16 µM
[30] = second compound 3.16 µM, first compound 10 µM
[31] = second compound 10 µM, first compound 0.0316 µM
[32] = second compound 10 µM, first compound 0.1 µM
[33] = second compound 10 µM, first compound 0.316 µM
[34] = second compound 10 µM, first compound 1 µM
[35] = second compound 10 µM, first compound 3.16 µM
[36] = second compound 10 µM, first compound 10 µM
[37] = second compound 0.0316 µM, first compound 0.00316 µM
[38] = second compound 0.0316 µM, first compound 0.01 µM
[39] = second compound 0.1 µM, first compound 0.00316 µM
[40] = second compound 0.1 µM, first compound 0.01 µM
[41] = second compound 0.316 µM, first compound 0.00316 µM
[42] = second compound 0.316 µM, first compound 0.01 µM
[43] = second compound 1 µM, first compound 0.00316 µM
[44] = second compound 1 µM, first compound 0.01 µM
[45] = second compound 3.16 µM, first compound 0.00316 µM
[46] = second compound 3.16 µM, first compound 0.01 µM
[47] = second compound 10 µM, first compound 0.00316 µM
[48] = second compound 10 µM, first compound 0.01 µM
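Also: spheroids exposed to the drugs for 7 days before readout.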
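For viability, T/C in this document: 100% = DMSO vehicle control wells.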

pIC50 (second compound 0.0316 µM): 5.19
pIC50 (second compound 0.1 µM): 5.26
pIC50 (second compound 0.316 µM): 5.32
pIC50 (second compound 1 µM): 5.67
pIC50 (second compound 3.16 µM): 6.02
pIC50 (second compound 10 µM): 6.01
Compound: CC1COCCN1c1cc(C2(S(C)(=N)=O)CC2)nc(-c2ccnc3[nH]ccc23)n1 (stereo not given) + CNC(=O)c1ccc(Nc2nc(OC3CCCC3)c3c(-c4ccc5nc(C)oc5c4)c[nH]c3n2)c(OC)c1
viability, T/C [1]: 101%
viability, T/C [2]: 98.3%
viability, T/C [3]: 91.2%
viability, T/C [4]: 83.2%
viability, T/C [5]: 62.8%
viability, T/C [6]: 42.1%
viability, T/C [7]: 87.2%
viability, T/C [8]: 78.4%
viability, T/C [9]: 77.1%
viability, T/C [10]: 74.4%
viability, T/C [11]: 53.5%
viability, T/C [12]: 43%
viability, T/C [13]: 72.6%
viability, T/C [14]: 69.3%
viability, T/C [15]: 79%
viability, T/C [16]: 80%
viability, T/C [17]: 56.4%
viability, T/C [18]: 38.7%
viability, T/C [19]: 73.8%
viability, T/C [20]: 66.8%
viability, T/C [21]: 71%
viability, T/C [22]: 62.8%
viability, T/C [23]: 43.5%
viability, T/C [24]: 32.6%
viability, T/C [25]: 63.7%
viability, T/C [26]: 63.2%
viability, T/C [27]: 54.6%
viability, T/C [28]: 52.5%
viability, T/C [29]: 36.9%
viability, T/C [30]: 27.6%
viability, T/C [31]: 51.8%
viability, T/C [32]: 58%
viability, T/C [33]: 54.5%
viability, T/C [34]: 49.8%
viability, T/C [35]: 31.9%
viability, T/C [36]: 21.8%

pIC50 (second compound 0.0316 µM): 7.82
pIC50 (second compound 0.1 µM): 7.90
pIC50 (second compound 0.316 µM): 7.90
pIC50 (second compound 1 µM): 7.95
pIC50 (second compound 3.16 µM): 8.32
pIC50 (second compound 10 µM): > 8.50
Compound: CCc1c2c(nc3ccc(O)cc13)-c1cc3c(c(=O)n1C2)COC(=O)[C@]3(O)CC + CNC(=O)c1ccc(Nc2nc(OC3CCCC3)c3c(-c4ccc5nc(C)oc5c4)c[nH]c3n2)c(OC)c1
viability, T/C [37]: 70.7%
viability, T/C [38]: 56.9%
viability, T/C [1]: 38.6%
viability, T/C [2]: 19%
viability, T/C [3]: 12.1%
viability, T/C [4]: 3.81%
viability, T/C [39]: 67.8%
viability, T/C [40]: 54%
viability, T/C [7]: 36%
viability, T/C [8]: 21.2%
viability, T/C [9]: 9.65%
viability, T/C [10]: 2.79%
viability, T/C [41]: 69.8%
viability, T/C [42]: 53.5%
viability, T/C [13]: 35%
viability, T/C [14]: 19.2%
viability, T/C [15]: 7.42%
viability, T/C [16]: 3.21%
viability, T/C [43]: 60.5%
viability, T/C [44]: 52.6%
viability, T/C [19]: 31.2%
viability, T/C [20]: 13.5%
viability, T/C [21]: 5.29%
viability, T/C [22]: 2.81%
viability, T/C [45]: 54.4%
viability, T/C [46]: 42.6%
viability, T/C [25]: 25.6%
viability, T/C [26]: 12.9%
viability, T/C [27]: 4.63%
viability, T/C [28]: 2.2%
viability, T/C [47]: 50%
viability, T/C [48]: 38.9%
viability, T/C [31]: 24.4%
viability, T/C [32]: 11.9%
viability, T/C [33]: 3.68%
viability, T/C [34]: 6.41%

pIC50 (second compound 0.0316 µM): < 7.00
pIC50 (second compound 0.1 µM): < 7.00
pIC50 (second compound 0.316 µM): < 7.00
pIC50 (second compound 1 µM): < 7.00
pIC50 (second compound 3.16 µM): < 7.00
pIC50 (second compound 10 µM): < 7.00
Compound: Cn1ncnc1[C@H]1c2n[nH]c(=O)c3cc(F)cc(c23)N[C@@H]1c1ccc(F)cc1 + CNC(=O)c1ccc(Nc2nc(OC3CCCC3)c3c(-c4ccc5nc(C)oc5c4)c[nH]c3n2)c(OC)c1
viability, T/C (second compound 0.0316 µM, first compound 0.000316 µM): 103%
viability, T/C (second compound 0.0316 µM, first compound 0.001 µM): 110%
viability, T/C [37]: 95%
viability, T/C [38]: 100%
viability, T/C [1]: 98.2%
viability, T/C [2]: 85.7%
viability, T/C (second compound 0.1 µM, first compound 0.000316 µM): 77%
viability, T/C (second compound 0.1 µM, first compound 0.001 µM): 83.3%
viability, T/C [39]: 83.1%
viability, T/C [40]: 94.6%
viability, T/C [7]: 74.6%
viability, T/C [8]: 78%
viability, T/C (second compound 0.316 µM, first compound 0.000316 µM): 82%
viability, T/C (second compound 0.316 µM, first compound 0.001 µM): 84%
viability, T/C [41]: 99.9%
viability, T/C [42]: 80.4%
viability, T/C [13]: 78.3%
viability, T/C [14]: 67.9%
viability, T/C (second compound 1 µM, first compound 0.000316 µM): 72.4%
viability, T/C (second compound 1 µM, first compound 0.001 µM): 73.5%
viability, T/C [43]: 68.9%
viability, T/C [44]: 76.7%
viability, T/C [19]: 74.9%
viability, T/C [20]: 65%
viability, T/C (second compound 3.16 µM, first compound 0.000316 µM): 69.3%
viability, T/C (second compound 3.16 µM, first compound 0.001 µM): 62.8%
viability, T/C [45]: 57.4%
viability, T/C [46]: 61.5%
viability, T/C [25]: 67.2%
viability, T/C [26]: 65%
viability, T/C (second compound 10 µM, first compound 0.000316 µM): 55.5%
viability, T/C (second compound 10 µM, first compound 0.001 µM): 55%
viability, T/C [47]: 55.7%
viability, T/C [48]: 54.1%
viability, T/C [31]: 54.2%
viability, T/C [32]: 52.7%

pIC50 (second compound 0.0316 µM): < 5.00
pIC50 (second compound 0.1 µM): < 5.00
pIC50 (second compound 0.316 µM): < 5.00
pIC50 (second compound 1 µM): 5.56
pIC50 (second compound 3.16 µM): 6.55
pIC50 (second compound 10 µM): 7.22
Compound: Nc1ccn(C2OC(CO)C(O)C2(F)F)c(=O)n1 (stereo not given) + CNC(=O)c1ccc(Nc2nc(OC3CCCC3)c3c(-c4ccc5nc(C)oc5c4)c[nH]c3n2)c(OC)c1
viability, T/C [1]: 94.5%
viability, T/C [2]: 80%
viability, T/C [3]: 67%
viability, T/C [4]: 65.4%
viability, T/C [5]: 68.5%
viability, T/C [6]: 58.5%
viability, T/C [7]: 75.3%
viability, T/C [8]: 80.7%
viability, T/C [9]: 64.6%
viability, T/C [10]: 62.9%
viability, T/C [11]: 60.7%
viability, T/C [12]: 54%
viability, T/C [13]: 63.3%
viability, T/C [14]: 74.2%
viability, T/C [15]: 69.9%
viability, T/C [16]: 54.8%
viability, T/C [17]: 59.6%
viability, T/C [18]: 65.2%
viability, T/C [19]: 66.4%
viability, T/C [20]: 62.5%
viability, T/C [21]: 66.6%
viability, T/C [22]: 53.5%
viability, T/C [23]: 44.4%
viability, T/C [24]: 54.7%
viability, T/C [25]: 63.1%
viability, T/C [26]: 59.8%
viability, T/C [27]: 49.2%
viability, T/C [28]: 41%
viability, T/C [29]: 42.1%
viability, T/C [30]: 43.7%
viability, T/C [31]: 52.8%
viability, T/C [32]: 49%
viability, T/C [33]: 44.4%
viability, T/C [34]: 39.6%
viability, T/C [35]: 40.6%
viability, T/C [36]: 43.1%

pIC50 (second compound 0.0316 µM): < 5.00
pIC50 (second compound 0.1 µM): < 5.00
pIC50 (second compound 0.316 µM): < 5.00
pIC50 (second compound 1 µM): 5.20
pIC50 (second compound 3.16 µM): < 5.00
pIC50 (second compound 10 µM): 5.92
Compound: O=c1[nH]cc(F)c(=O)[nH]1 + CNC(=O)c1ccc(Nc2nc(OC3CCCC3)c3c(-c4ccc5nc(C)oc5c4)c[nH]c3n2)c(OC)c1
viability, T/C [1]: 102%
viability, T/C [2]: 88.6%
viability, T/C [3]: 92.7%
viability, T/C [4]: 85.3%
viability, T/C [5]: 72.2%
viability, T/C [6]: 61.8%
viability, T/C [7]: 74.8%
viability, T/C [8]: 83.1%
viability, T/C [9]: 76.2%
viability, T/C [10]: 81.8%
viability, T/C [11]: 70.7%
viability, T/C [12]: 58.7%
viability, T/C [13]: 78.5%
viability, T/C [14]: 76.4%
viability, T/C [15]: 68.2%
viability, T/C [16]: 70.4%
viability, T/C [17]: 67.1%
viability, T/C [18]: 54.6%
viability, T/C [19]: 73.7%
viability, T/C [20]: 67.3%
viability, T/C [21]: 71.5%
viability, T/C [22]: 69%
viability, T/C [23]: 56.9%
viability, T/C [24]: 45.6%
viability, T/C [25]: 63.5%
viability, T/C [26]: 58.6%
viability, T/C [27]: 64%
viability, T/C [28]: 54%
viability, T/C [29]: 55.2%
viability, T/C [30]: 48.5%
viability, T/C [31]: 51.8%
viability, T/C [32]: 58.5%
viability, T/C [33]: 54.2%
viability, T/C [34]: 51.8%
viability, T/C [35]: 41.3%
viability, T/C [36]: 39%
